Source: US7192607B2, “Formulations for the prevention or the treatment of diseases affecting mucosae or skin, or for pregnancy prevention, and an applicator for the delivery of topical formulations into mucosal cavities” (Infectio Recherche Inc, priority 2002, dated 2007)
“And” between values parts separate entries of the source, which are not always exact repeats. Identical values can stand only once. Like-named read-outs stand apart in the source and are kept apart here.

What was measured:
HSV-1 (strain F) [1] = assay: Infectivity of HSV-1 (strain F) to Vero cells after treatment with SLS or DS (plaque forming units); type: cell-based, Herpes simplex virus type-1; details: for IC50: Human alphaherpesvirus 1, Vero, FIG. 1, read-out: concentration giving a loss of 50% of the viral infectivity
Protocol: (§1) The effect of pretreating different strains of herpes viruses with SLS or DS on their viral infectivities to susceptible cells has been evaluated. In brief, cells were seeded in 24 well-plates (Costar, Montreal, QC, Canada). Prior to infection, the virus was either suspended in culture medium or phosphate buffered saline (PBS), or incubated with different concentrations of SLS in PBS for 1 h at 37° C. At confluency, cells were incubated with viral suspensions by centrifuging the plates (750× g for 45 min at 20° C.) to allow virus adsorption. Virus was removed and cell sheets were then overlaid with 0.5 ml of 0.6% agarose Seaplaque (Marine Colloids, Rockland, Md.) prepared in appropriate culture medium. The plates were incubated for 2 days at 37° C. Cells were then fixed with 10% formaldehyde in PBS for 20 min, washed with deionized water and stained with 0.05% methylene blue. Viral infectivity was evaluated via the determination of Plaque Forming Units (PFU).
HSV-1 (strain F) infectivity was reduced to 21% when viral particles were pretreated with 25 μM SLS. The infectivities of all HSV-2 strains were between 50 to 70% following preincubation with 25 μM SLS. A complete loss of the infectivity of all strains tested were obtained following pretreatment of the viruses with 50 μM SLS.
When SLS was immediately added to Vero cells following their infection, the loss of viral infectivity was less dramatic compared to that obtained for virus pretreated for 1 h at 37° C. with the same SLS concentrations. […] Similarly, pretreatment of the HSV-2 (strain 333) with SLS also influenced the infectivity of this strain (data not shown). On the other hand, DS reduces the infectivity of the virus independent of whether the virus was pretreated with DS.

HSV-2 (22) = assay: Infectivity of HSV-2 (22) pretreated with SLS on Vero cells (PFU); type: cell-based, Herpes simplex virus type-2
Protocol: as §1

HSV-2 (15589) = assay: Infectivity of HSV-2 (15589), foscarnet-resistant strain, pretreated with SLS on Vero cells (PFU); type: cell-based, Herpes simplex virus type-2
Protocol: as §1

HSV-1 (strain F) [2] = assay: Efficacy of SLS or DS added in overlay after infection against HSV-1 (strain F) in Vero cells (PFU); type: cell-based, Herpes simplex virus type-1; details: cells infected 2 h, compound in overlay for 2 days, FIG. 2
Protocol: In brief, cells were infected with the virus for 2 h at 37° C. Afterwards, supernatant was removed and cells were overlaid with 0.5 ml of EMEM +2% FBS containing 0.6% agarose Seaplaque and SLS or DS at the desired concentration. Plates were then incubated for 2 days at 37° C. in a 5% CO2 atmosphere. Cells were fixed with 10% formaldehyde in PBS for 20 min, washed with deionized water and stained with 0.05% methylene blue. Viral infectivity was evaluated following the determination of PFU.

HSV-1 (strain F) [3] = assay: Electron microscopy of Vero cells infected with HSV-1 (strain F) pretreated with SLS; type: cell-based, Herpes simplex virus type-1
Protocol: The appearance of HSV-1 (strain F) pretreated with varying SLS concentrations (50, 75 and 100 μM) for 1 h at 37° C. has been evaluated in Vero cells using electron microscopy. In brief, cells (80–90% confluent) were infected with the virus (approximately 70 PFU/ml in 14 ml) for 48 h at 37° C. in a 5% CO2 atmosphere. Cells were scrapped off from the dishes and resuspended in culture medium. Cells were centrifuged (515× g for 10 min at 4° C.) and the supernatant was decanted and cells were resuspended in approximately 500 μl medium. Cells were transferred in an eppendorf tube and centrifuged at (10,000× g for 5 min at 4° C.). The pellet was resuspended in approximately 200 μl of 20% bovine serum albumin (BSA). Few drops of 25% glutaraldehyde were added to the mixture and samples were immediately put in an ice bath to allow BSA polymerization. The pellet was then cut in 1 mm^3 samples which were then fixed in 2% glutaraldehyde in PBS for 1 h, 1% OsO4 in PBS for 1 h and then with 0.1% tannic acid in PBS for 30 min. Samples were rinsed 3 times in PBS for 5 min between each step. Samples were stained with 2% uranyl acetate in 10% ethanol for 30 min. Samples were dehydrated and embedded in Epon following routine procedures. Sections (approximately 75 nm thickness) were mounted on copper grid (200 mesh). […]

HSV-1 (strain F) [4] = assay: Murine cutaneous infection model, HSV-1 pretreated with SLS or DS; type: in vivo, hairless mice (SKH1)
Protocol: The effect of pretreating HSV-1 (strain F) with SLS on viral infectivity has also been evaluated in a murine cutaneous infection model. Female hairless mice (SKH1; Charles River Breeding Laboratories Inc., St-Constant, QC, Canada), 5–6 weeks old were used throughout this study. […] Mice were anesthetized by intraperitoneal injection of a mixture containing 70 mg/kg ketamine hydrochloride (Rogarsetic* injection USP; Rogar/STB Inc. Montreal, QC, Canada) and 11.5 mg/kg xylazine (Rompun®; Miles Canada Inc., Etobicoke, ON, Canada). The virus was inoculated on the lateral side of the body in the left lumbar skin area. The skin was scratched six times in a crossed-hatched pattern with a 27-gauge needle held vertically. Viral suspension (50 μl) was deposited onto the scarified area and rubbed for 10 to 15 see with a cotton tipped applicator saturated with EMEM+2% FBS or SLS or DS solutions. The scarified area was protected with a corn cushion which was maintained on the mice body with surgical tape. The porous inner wall of the aperture of the corn cushion was impermeabilized with tissue adhesive prior to use to prevent absorption of the drug. The aperture of the corn cushion was also closed with surgical tape. Mice were then returned to their cages and observed twice daily.
In infected untreated mice, no pathological signs of cutaneous infection were visible during the first four days following infection and only the scarified area remained appearent. On day 5, herpetic skin lesions began to appear in some mice in the form of small vesicles distant from the inoculation site. On day 6, almost all untreated mice developed herpetic skin lesions in the form of a 4–5 mm wide band extending from the spine to the ventral midline of the infected dermatome similar to zoster-like infections. Maximal mean lesion score was observed on day 8. Mean lesion score decreased thereafter from day 11 to day 15 because of spontaneous regression of cutaneous lesions in some mice. […] Of prime importance, all mice infected with the virus pretreated with 100 μM SLS survived the infection (data not shown).

[5] = virus pretreated with 6.25 μM SLS for 1 hour at 37° C.
[6] = virus pretreated with 12.5 μM SLS for 1 hour at 37° C.
[7] = virus pretreated with 50 μM SLS for 1 hour at 37° C.
[8] = virus pretreated with 25 μM SLS for 1 hour at 37° C.
[9] = virus pretreated with 100 μM SLS for 1 h at 37° C.

## CCCCCCCCCCCCOS(=O)(=O)[O-].[Na+] [SLS, Sodium lauryl sulfate]
HSV-1 (strain F) [1]; 100 μM SLS without pretreatment
  inhibition of viral infectivity: not complete
HSV-1 (strain F) [1]; virus not pretreated (added without pretreatment)
  IC50: 75 µM
HSV-1 (strain F) [1]; virus pretreated for 1 h at 37° C.
  IC50: 20 µM
HSV-1 (strain F) [1]; preincubation of virus with 50 μM SLS
  inhibition of viral infectivity: complete inhibition
HSV-1 (strain F) [1]; [5]
  PFU (% of control) for HSV-1 (F): 101.1 ± 7.0 % of control
HSV-1 (strain F) [1]; [6]
  PFU (% of control) for HSV-1 (F): 79.2 ± 36.4 % of control
HSV-1 (strain F) [1]; virus pretreated with 25 μM SLS for 1 hour at 37° C., sulfate
  PFU (% of control) for HSV-1 (F): 21 % of control and 21.2 ± 18.0 % of control
HSV-1 (strain F) [1]; [7]
  PFU (% of control) for HSV-1 (F): 0 % of control
HSV-2 (22); [5]
  PFU (% of control) for HSV-2 (22): 128.0 ± 18.5 % of control
HSV-2 (22); [6]
  PFU (% of control) for HSV-2 (22): 103.4 ± 14.9 % of control
HSV-2 (22); [8]
  PFU (% of control) for HSV-2 (22): 63.8 ± 11.9 % of control
HSV-2 (22); [7]
  PFU (% of control) for HSV-2 (22): 0 % of control
HSV-2 (15589); [5]
  PFU (% of control) for HSV-2 (15589): 108.7 ± 22.2 % of control
HSV-2 (15589); [6]
  PFU (% of control) for HSV-2 (15589): 115.1 ± 17.5 % of control
HSV-2 (15589); [8]
  PFU (% of control) for HSV-2 (15589): 59.0 ± 4.0 % of control
HSV-2 (15589); [7]
  PFU (% of control) for HSV-2 (15589): 0 % of control
HSV-1 (strain F) [2]
  concentration with complete efficacy against viral replication: 100 µM
HSV-1 (strain F) [3]; [9]
  cells with empty capsids in the nuclei (electron microscopy): only a few cells with empty capsids in the nuclei could be detected
HSV-1 (strain F) [3]; virus pretreated with 50, 75 and 100 μM SLS for 1 h at 37° C.
  appearance of viral particles in infected Vero cells (electron microscopy): No mature nucleocapsid could be observed
HSV-1 (strain F) [4]; [9]
  cutaneous lesions: did not demonstrate any signs of cutaneous lesions
HSV-1 (strain F) [4]; virus pretreated with 100 μM SLS, data not shown
  mice that survived the infection: all
HSV-1 (strain F) [4]; virus pretreated with 6.25 and 25 μM SLS for 1 h at 37° C.
  mean lesion score: did not demonstrate a significant reduction
